Reference: patent publication US20080188761A1, “ECG-BASED IDENTIFICATION OF IMPAIRED IKR KINETICS” (priority 2006, published 2008)
Where two headings read alike, the source gives them in different places.

Test system: healthy individuals
Conditions: for RR: healthy subjects, lead II, mean ± SD
Protocol: Our investigation is based on the analysis of 12-lead digital Holter recordings in: 49 LQT1 carriers, 25 LQT2 carriers, 37 healthy individuals off drugs and on 160 mg of sotalol, and 21 of them also on 320 mg of sotalol. The Holter recordings were used to investigate repolarization parameters and their heart rate dependency.
The study populations consisted of: 49 LQT1 carriers, 25 LQT2 carriers, and 37 healthy individuals who participated in a study focused on effect of sotalol on ECG parameters of repolarization. The group of LQTS patients included individuals with genetically identified KCNH2 (HERG) and KCNQ1 mutations, we investigated these two types of mutations since they are associated with two different ion-kinetics dysfunctions of potassium currents: the KCNH2 have been linked to a reduction of the rapidly activating repolarizing potassium current (IKr) and the KCNQ1 to the slowly activating ion current IKs. We analyzed the patients in whom digital 24-hour Holter recordings were available in order to be able to investigate heart rate dependency of their repolarization morphology. The protocol of this study included 3 days of Holter recordings: at baseline, on single 160 mg dose of sotalol and a 320 mg dose of sotalol.
All the Holter ECGs were recorded using the same type of equipment: 24-hour Holter recorder H12 (H-12 recorder, Mortara Instrument, Milwaukee, Wis.) providing digital ECG signal at a sampling frequency of 180 Hz and with 12 bit amplitude resolution (6.25 pv). In this recording, 8 original leads are recorded and the remaining 4 leads (augmented limb leads aVR, aVL, aVF and lead III) are computed. Beat classification was performed using the HScribe scanning software (HScribe, Mortara Instrument, Milwaukee, Wi.) and manually reviewed and adjusted when necessary. The information about cardiac beat annotation was exported in XML format and integrated into the COMPAS software (COMPhrensive Analysis of the repolarization Segment software, University of Rochester Medical Center Rochester, N.Y.) for the analysis of repolarization morphology.
To ensure stability of repolarization and increase signal-to-noise ratio, we adopted the following strategy: the Holter recordings were divided in sections of 10 continuous sinus beats. Only the sections preceded by stable heart rate within the previous 5 minutes were selected for the analysis. Heart rate stability required having less than 300 ms changes between continuous RR values within the 5 minutes. […] The QT interval and T-amplitude measurements were based on median beats computed from each so-called “stable representative beats”.
Based on a technique ensuring an appropriate stability of the modeling of the relationship between repolarization measurements and the RR intervals disclosed in a publication by Couderc J P, Xiaojuan X, Zerba W, Moss A J, entitled, “Assessment of the Stability of the Individual-Based Correction of QT Interval for Heart Rate”, published in the Ann. Noninvasive. Electrocardiol. 2005 January; 10(1):25-34, and herein officially incorporated by reference, we investigated two electrocardiographic measurements: the QT interval and the amplitude of the T-wave and their relationship with RR intervals.
The QT interval and T amplitude were measured on the stable representative beats from lead II. The end of T-wave was identified based on the tangent method, the crossing point between the tangent and the isoelectric line identifying the end of the T-wave, although other methods of measuring the QT interval could be used in other embodiments. The amplitude of the T-wave was measured at the maximum value of the T-wave signal in absolute value. For negative T-waves, the sign of the amplitude was conserved. For biphasic T-waves, we measured the highest portion of the signal in absolute value. No manual adjustments of measurements were performed.

Dose dependence of T-wave amplitude/RR slope (in vivo): dose-dependent effect on the slope
Mean levels of T wave amplitude off vs on sotalol (in vivo): not significantly different
Structure (SMILES): CC(C)NCC(O)c1ccc(NS(C)(=O)=O)cc1 (stereo not drawn) [sotalol]
RR (high dose sotalol (320 mg), n = 21, diurnal period): 947 ± 70 ms
RR (low dose sotalol (160 mg), n = 37, diurnal period): 893 ± 63 ms
Dose dependence of QT/RR slope (in vivo): not associated with sotalol dose-dependent changes
Dose-dependent effect on QT interval duration, RR bin analysis (in vivo): this trend did not reach statistical significance
QT interval duration, RR bin analysis, vs healthy individuals (in vivo): significant QT interval prolongation
QTc with increasing dose of sotalol (in vivo): progressively prolonged
T-wave amplitude across RR bins (in vivo): clear dose-dependent effect of the drug on T-wave amplitude exacerbated at low heart rate
